Source: the CheMixHub viscosity set

Test: xn = mol fraction of the nth substance listed

CCOCCO + C=C(C)C(=O)OC
viscosity [mPa·s], 101.3 kPa
Settings	298.15 K	308.15 K
x2 = 0.0533	1.64	1.305
x2 = 0.154	1.402	1.146
x2 = 0.2467	1.225	1.022
x2 = 0.3554	1.059	0.9
x2 = 0.4551	0.937	0.807
x2 = 0.4993	0.89	0.77
x2 = 0.5543	0.838	0.727
x2 = 0.6547	0.758	0.658
x2 = 0.7547	0.693	0.6
x2 = 0.8858	0.628	0.537
x2 = 0.9532	0.603	0.517

CCOCCO + CC#N
viscosity [mPa·s], 101.33 kPa
Settings	x1 = 0.1016	x1 = 0.2016	x1 = 0.2865	x1 = 0.4004	x1 = 0.5026	x1 = 0.6026	x1 = 0.7122	x1 = 0.7978	x1 = 0.8997
298.15 K	0.458	0.546	0.638	0.79	0.946	1.128	1.346	1.524	1.786
303.15 K	0.389	0.461	0.535	0.655	0.781	0.921	1.075	1.236	1.435
308.15 K	0.37	0.435	0.501	0.608	0.721	0.845	0.978	1.122	1.295

Cn1cc[n+](CCCC#N)c1.O=S(=O)([O-])C(F)(F)F + CC#N
Settings	viscosity [mPa·s]
298.15 K, 101 kPa, x1 = 0.7996	306.5

CNC(C)=O + CC(=O)c1ccccc1
308.15 K, 101 kPa
Settings	viscosity [mPa·s]
x2 = 0.0686	3.109
x2 = 0.138	2.919
x2 = 0.2189	2.657
x2 = 0.3143	2.397
x2 = 0.3938	2.199
x2 = 0.4912	1.965
x2 = 0.6042	1.747
x2 = 0.7227	1.561
x2 = 0.8517	1.455

CNC(C)=O + CC(C)(C)O
303.15 K, 101 kPa
Settings	viscosity [mPa·s]
x1 = 0.0809	4.253
x1 = 0.1017	4.365
x1 = 0.2071	4.448
x1 = 0.3102	4.22
x1 = 0.4103	4.026
x1 = 0.5002	3.864
x1 = 0.6021	3.776
x1 = 0.7095	3.752
x1 = 0.8039	3.747
x1 = 0.9007	3.778
